# Measured values as given in patent publication US7968595B2, “Substituted 4-aryl-chromene as activator of caspases and inducer of apoptosis and as antivascular agent and the use thereof” (Cytovia, Inc., priority 2006, dated 2011).
# Tests used:
# [1] = test system: MDAMB435; assay: Inhibition of cell proliferation (GI50), MDAMB435; type: cell-based; conditions: Homo sapiens, MDA-MB-435; MDAMB435 cells, 72 h, CellTiter-Glo
# Method: Human breast cancer cells MX-1 and MDAMB435, hepatocarcinoma cells SNU398, colon cancer cells HCT116 and HeLa cells were grown and harvested as in Example 7. An aliquot of […] of cells (4.4×10^4 cells/mL) was added to a well of a 96-well microtiter plate containing 5 μL of a 10% DMSO in RPMI-1640 media solution containing 10 nM to 100 μM of R(−)-2,7,8-triamino-4-(3-bromo-4,5-dimethoxy-phenyl)-3-cyano-4H-chromene (1 nM to 10 μM final). An aliquot of 45 μL of cells was added to a well of a 96-well microtiter plate containing 5 μL of a 10% DMSO in RPMI-1640 media solution without compound as the control sample for maximal cell proliferation (LMax). The samples were mixed by agitation and then incubated at 37° C. for 72 h in a 5% CO2−95% humidity incubator. After incubation, the samples were removed from the incubator and 25 μL of CellTiter-Glo™ reagent (Promega) was added. The samples were mixed by agitation and incubated at room temperature for 10-15 min. Plates were then read using a luminescent plate reader (Model SPECTRAfluor Plus, Tecan) to give Ltest values.
# Baseline for GI50 (dose for 50% inhibition of cell proliferation) of initial cell numbers was determined by adding an aliquot of 45 μL of cells or 45 μL of media, respectively, to wells of a 96-well microtiter plate containing 5 μL of a 10% DMSO in RPMI-1640 media solution. […]
# [2] = test system: T-47D; assay: Caspase activation assay in T-47D cells; type: cell-based; conditions: Homo sapiens; T47D cells, 24 h incubation; read-out: Caspase activation potency EC50 T47D
# Method: (§1) Human breast cancer cell lines T-47D and ZR-75-1, human colon cancer cell line DLD-1 and human non-small cell lung cancer cell line H1299 were grown according to media component mixtures designated by American Type Culture Collection+10% FCS (Invitrogen Corporation), in a 5% CO2−95% humidity incubator at 37° C. T-47D and ZR-75-1 cells were maintained at a cell density between 30 and 80% confluency at a cell density of 0.1 to 0.6×10^6 cells/mL. Cells were harvested at 600×g and resuspended at 0.65×10^6 cells/mL into appropriate media+10% FCS. An aliquot of […] of cells was added to a well of a 96-well microtiter plate containing 5 μl of a 10% DMSO in RPMI-1640 media solution containing about 0.16 to 10 μM of 2,7,8-triamino-4-(3-bromo-4,5-dimethoxy-phenyl)-3-cyano-4H-chromene (1) or other test compounds (0.016 to 1 μM final). An aliquot of 45 μl of cells was added to a well of a 96-well microtiter plate containing 5 μl of a 10% DMSO in RPMI-1640 media solution without test compound as the control sample. The samples were mixed by agitation and then incubated at 37° C. for 24 h in a 5% CO2−95% humidity incubator. After incubation, the samples were removed from the incubator and 50 μl of a solution containing 20 μM of N-(Ac-DEVD)-N′-ethoxycarbonyl-R110 (SEQ ID No:1) fluorogenic substrate (Cytovia, Inc.; U.S. Pat. No. 6,335,429), 20% sucrose (Sigma), 20 mM DTT (Sigma), 200 mM NaCl (Sigma), 40 mM Na PIPES buffer pH 7.2 (Sigma), and 500 μg/ml lysolecithin (Calbiochem) was added. The samples were mixed by agitation and incubated at room temperature. Using a fluorescent plate reader (Model 1420 Wallac Instruments), an initial reading (T=0) was made about 1-2 min after addition of the substrate solution, employing excitation at 485 nm and emission at 530 nm, to determine the background fluorescence of the control sample. After the 3 h incubation, the samples were read for fluorescence as above (T=3 h).
# (§2) The Relative Fluorescence Unit values (RFU) were used to calculate the sample readings as follows: RFU(T=3h)−Control RFU(T=0)=Net RFU(T=3h)
# (§3) The activity of caspase cascade activation was determined by the ratio of the net RFU value for 2,7,8-triamino-4-(3-bromo-4,5-dimethoxy-phenyl)-3-cyano-4H-chromene or other test compound to that of control samples. The EC50 (nM) was determined by a sigmoidal dose-response calculation (Prism 2.0, GraphPad Software Inc.).
# [3] = test system: DLD-1; assay: Caspase activation assay in DLD-1 cells; type: cell-based; conditions: Homo sapiens, 24 h incubation, read-out: Caspase activation potency EC50 DLD-1
# Method: as §1, with “After incubation, the samples were removed from the incubator and 50 μl of a solution containing 20 μM of N-(Ac-DEVD)-N′-ethoxycarbonyl-R110 (SEQ ID No:1) fluorogenic substrate (Cytovia, Inc.; U.S. Pat. No. 6,335,429), 20% sucrose (Sigma), 20 mM DTT (Sigma), 200 mM NaCl (Sigma), 40 mM Na PIPES buffer pH 7.2 (Sigma), and 500 μg/ml lysolecithin (Calbiochem) was added. The samples were mixed by agitation and incubated at room temperature.” left out
# as §2, §3
# [4] = test system: solid tumor cells; assay: Caspase cascade activation and induction of apoptosis, overall statement; type: cell-based, human; conditions: summary of Table I
# Method: as §1, with “After incubation, the samples were removed from the incubator and 50 μl of a solution containing 20 μM of N-(Ac-DEVD)-N′-ethoxycarbonyl-R110 (SEQ ID No:1) fluorogenic substrate (Cytovia, Inc.; U.S. Pat. No. 6,335,429), 20% sucrose (Sigma), 20 mM DTT (Sigma), 200 mM NaCl (Sigma), 40 mM Na PIPES buffer pH 7.2 (Sigma), and 500 μg/ml lysolecithin (Calbiochem) was added. The samples were mixed by agitation and incubated at room temperature.” left out
# as §3
structure (smiles),measurement,setting,value
"COc1cc([C@H]2C(C#N)=C(N)Oc3c2ccc(N)c3N)cc(Br)c1OC [Compound 1R, R(−)-2,7,8-triamino-4-(3-bromo-4,5-dimethoxy-phenyl)-3-cyano-4H-chromene]",GI50,[1],9 nM
same,EC50,[2],21 nM
same,EC50,[3],57 nM
same,Caspase cascade activator and inducer of apoptosis (in words),[4],potent caspase cascade activator and inducer of apoptosis
